Patent publication US20250136594A1 (Tango Therapeutics, Inc., priority 2022, published 2025)
pIC50: −log10 of the molar value.

Key:
[1] = test system: HAP1 MTAP-deleted cell line; experiment: Viability assay, HAP1 MTAP-deleted cell line; assay type: cell-based; conditions: Homo sapiens; viability assay, HAP1 MTAP-deleted cell line; read-out: Hap1 MTAP deleted viability IC50
[2] = test system: SDMA in HAP1 MTAP-intact cell line (PRMT5 inhibition); experiment: SDMA in-cell western assay, HAP1 MTAP-intact cell line; conditions: Homo sapiens, HAP1, read-out: Hap1 MTAP intact IC50
[3] = test system: SDMA in HAP1 MTAP-deleted (MTAP-null) cell line (PRMT5 inhibition); experiment: SDMA in-cell western assay, HAP1 MTAP-deleted cell line; conditions: for pIC50 / IC90: Homo sapiens; for pIC50: HAP1, read-out: Hap1 MTAP deleted IC50; for IC90: HAP1, read-out: Hap1 MTAP deleted IC90; for Hap1 MTAP intact/deleted ratio: ratio of SDMA IC50 in HAP1 MTAP-intact to HAP1 MTAP-deleted cell line

| pIC50 [2] | pIC50 [3] | IC90 [3] [µM] | Compound | pIC50 [1] | Hap1 MTAP intact/deleted ratio [3] |
| --- | --- | --- | --- | --- | --- |
| 7.30 to 8.30 | > 8.30 | > 0.125 | Cc1cc(NC(=O)C(=O)N(Cc2ccc(C(F)(F)F)cn2)[C@@H]2CCC[C@H]2OC(F)F)cnc1N [Compound 19, N1-(6-amino-5-methylpyridin-3-yl)-N^2-((1R,2R)-2-(difluoromethoxy)cyclopentyl)-N^2-((5-(trifluoromethyl)pyridin-2-yl)methyl)oxalamide] | 6.00 to 7.00 | C (IC50 ratio of less than 15 fold) |
| < 7.30 | 7.30 to 8.30 | 0.075 to 0.125 | COC[C@@H](C1CC1)N(Cc1ccc(C(F)(F)F)cn1)C(=O)C(=O)Nc1cncc(C(N)=O)c1 [Compound 34, (R)-N1-(5-carbamoylpyridin-3-yl)-N2-(1-cyclopropyl-2-methoxyethyl)-N2-((5-(trifluoromethyl)pyridin-2-yl)methyl)oxalamide] | 6.00 to 7.00 | B (IC50 ratio greater than or equal to 15 fold but lower than 30 fold) |
| < 7.30 | 7.30 to 8.30 | > 0.125 | COc1ncc(NC(=O)C(=O)N(Cc2ccc(C(F)(F)F)cn2)C2CCC(C)c3ccccc32)cc1C(N)=O (centres unmarked) [Compound 33, N-(5-carbamoyl-6-methoxy-3-pyridyl)-N′-(4-methyltetralin-1-yl)-N′-[[5-(trifluoromethyl)-2-pyridyl]methyl]oxamide] | > 7.00 | C (IC50 ratio of less than 15 fold) |
| < 7.30 | 7.30 to 8.30 | > 0.125 | CC(C)C(C)N(Cc1ccc(C(F)(F)F)cn1)C(=O)C(=O)Nc1cncc(C(N)=O)c1 (centres unmarked) [Compound 20, N-(5-carbamoyl-3-pyridyl)-N′-(1,2-dimethylpropyl)-N′-[[5-(trifluoromethyl)-2-pyridyl]methyl]oxamide] | 6.00 to 7.00 | B (IC50 ratio greater than or equal to 15 fold but lower than 30 fold) |
| < 7.30 | 7.30 to 8.30 | 0.075 to 0.125 | NC(=O)c1cncc(NC(=O)C(=O)N(Cc2ccc(C(F)(F)F)cn2)[C@@H]2CCC[C@H]2OC(F)F)c1 [Compound 22, N1-(5-carbamoylpyridin-3-yl)-N^2-((1R,2R)-2-(difluoromethoxy)cyclopentyl)-N^2-((5-(trifluoromethyl)pyridin-2-yl)methyl)oxalamide] | 6.00 to 7.00 | A (IC50 ratio greater than or equal to 30 fold) |
| 7.30 to 8.30 | > 8.30 | < 0.075 | CC[C@@H](C)CN(Cc1ccc(C(F)(F)F)cn1)C(=O)C(=O)Nc1cnc(N)c2cn[nH]c12 [Compound 75, (R)—N^1-(4-amino-1H-pyrazolo[4,3-c]pyridin-7-yl)-N^2-(2-methylbutyl)-N^2-((5-(trifluoromethyl)pyridin-2-yl)methyl)oxalamide] | > 7.00 | C (IC50 ratio of less than 15 fold) |
| 7.30 to 8.30 | > 8.30 | < 0.075 | Nc1ncc(NC(=O)C(=O)N(Cc2ccccc2)Cc2ncccc2Cl)c2[nH]ncc12 [Compound 120, N-(4-amino-2H-pyrazolo[4,3-c]pyridin-7-yl)-N′-benzyl-N′-[(3-chloro-2-pyridyl)methyl]oxamide] | > 7.00 | B (IC50 ratio greater than or equal to 15 fold but lower than 30 fold) |
| 7.30 to 8.30 | > 8.30 | < 0.075 | Nc1ncc(NC(=O)C(=O)N(Cc2ccccc2)Cc2ccc(Cl)cn2)c2[nH]ncc12 [Compound 158, N-(4-amino-1H-pyrazolo[4,3-c]pyridin-7-yl)-N′-benzyl-N′-[(5-chloro-2-pyridyl)methyl]oxamide] | > 7.00 | C (IC50 ratio of less than 15 fold) |
| < 7.30 | > 8.30 | < 0.075 | Cc1ccnc(CN(Cc2ccccc2)C(=O)C(=O)Nc2cnc(N)c3cn[nH]c23)c1 [Compound 156, N-(4-amino-1H-pyrazolo[4,3-c]pyridin-7-yl)-N′-benzyl-N′-[(4-methyl-2-pyridyl)methyl]oxamide] | > 7.00 | A (IC50 ratio greater than or equal to 30 fold) |
| 7.30 to 8.30 | > 8.30 | < 0.075 | Cc1ccc(CN(Cc2ccccn2)C(=O)C(=O)Nc2cnc(N)c3cn[nH]c23)cc1 [Compound 190, N-(4-amino-1H-pyrazolo[4,3-c]pyridin-7-yl)-N′-(p-tolylmethyl)-N′-(2-pyridylmethyl)oxamide] | > 7.00 | A (IC50 ratio greater than or equal to 30 fold) |
| 7.30 to 8.30 | > 8.30 | < 0.075 | Cc1cccc(CN(Cc2ccccn2)C(=O)C(=O)Nc2cnc(N)c3cn[nH]c23)c1 [Compound 52, N-(4-amino-1H-pyrazolo[4,3-c]pyridin-7-yl)-N′-(m-tolylmethyl)-N′-(2-pyridylmethyl)oxamide] | > 7.00 | B (IC50 ratio greater than or equal to 15 fold but lower than 30 fold) |
| < 7.30 | > 8.30 | < 0.075 | Cc1ccccc1CN(CC1CC1)C(=O)C(=O)Nc1cnc(N)c2cn[nH]c12 [Compound 155, N-(4-amino-1H-pyrazolo[4,3-c]pyridin-7-yl)-N′-(cyclopropylmethyl)-N′-(o-tolylmethyl)oxamide] | > 7.00 | A (IC50 ratio greater than or equal to 30 fold) |
| < 7.30 | > 8.30 | 0.075 to 0.125 | CC(C)CN(Cc1ccccc1)C(=O)C(=O)Nc1cnc(N)c2cn[nH]c12 [Compound 101, N-(4-amino-1H-pyrazolo[4,3-c]pyridin-7-yl)-N′-benzyl-N′-isobutyl-oxamide] | > 7.00 | A (IC50 ratio greater than or equal to 30 fold) |
| 7.30 to 8.30 | > 8.30 | < 0.075 | Cc1c(CN(Cc2ccccn2)C(=O)C(=O)Nc2cnc(N)c3cn[nH]c23)cccc1N(C)C [Compound 124, N1-(4-amino-1H-pyrazolo[4,3-c]pyridin-7-yl)-N^2-(3-(dimethylamino)-2-methylbenzyl)-N^2-(pyridin-2-ylmethyl)oxalamide] | > 7.00 | C (IC50 ratio of less than 15 fold) |
| 7.30 to 8.30 | > 8.30 | < 0.075 | CCN(C(=O)C(=O)Nc1cnc(N)c2cn[nH]c12)[C@H](C)c1ccc(C(F)(F)F)cc1C [Compound 70, (R)—N^1-(4-amino-1H-pyrazolo[4,3-c]pyridin-7-yl)-N^2-ethyl-N^2-(1-(2-methyl-4-(trifluoromethyl)phenyl)ethyl)oxalamide] | > 7.00 | C (IC50 ratio of less than 15 fold) |
| < 7.30 | 7.30 to 8.30 | > 0.125 | CCN(Cc1cccc2ccccc12)C(=O)C(=O)Nc1cnc(N)c2cn[nH]c12 [Compound 176, N-(4-amino-1H-pyrazolo[4,3-c]pyridin-7-yl)-N′-ethyl-N′-(1-naphthylmethyl)oxamide] | 6.00 to 7.00 | A (IC50 ratio greater than or equal to 30 fold) |
| < 7.30 | > 8.30 | < 0.075 | CCC(C)CN(Cc1ccccn1)C(=O)C(=O)Nc1cnc(N)c2cn[nH]c12 (centres unmarked) [Compound 152, N-(4-amino-1H-pyrazolo[4,3-c]pyridin-7-yl)-N′-(2-methylbutyl)-N′-(2-pyridylmethyl)oxamide] | > 7.00 | A (IC50 ratio greater than or equal to 30 fold) |
| < 7.30 | 7.30 to 8.30 | 0.075 to 0.125 | C[C@@H](c1ccc(C(F)(F)C(F)(F)F)cc1F)N(C)C(=O)C(=O)Nc1cnc(N)c2cn[nH]c12 [Compound 168, N-(4-Amino-1H-pyrazolo[4,3-c]pyridin-7-yl)-N′-methyl-N′—[(1S)-1-[2-fluoro-4-(1,1,2,2,2-pentafluoroethyl)phenyl]ethyl]oxamide] | > 7.00 | A (IC50 ratio greater than or equal to 30 fold) |
| 7.30 to 8.30 | 7.30 to 8.30 | < 0.075 | COC[C@@H](C1CC1)N(Cc1ccc(C(F)(F)F)cn1)C(=O)C(=O)Nc1cnc(N)c(C)c1 [Compound 5, (R)—N^1-(6-amino-5-methylpyridin-3-yl)-N^2-(1-cyclopropyl-2-methoxyethyl)-N^2-((5-(trifluoromethyl)pyridin-2-yl)methyl)oxalamide] | > 7.00 | C (IC50 ratio of less than 15 fold) |
| < 7.30 | < 7.30 | > 0.125 | NC(=O)c1ccc(CN(Cc2ncccn2)C(=O)C(=O)Nc2cnc(N)c3cn[nH]c23)nc1 [Compound 136, N-(4-amino-1H-pyrazolo[4.3-c]pyridin-7-yl)-N′-[(5-carbamoyl-2-pyridyl)methyl]-N′-(pyrimidin-2-ylmethyl)oxamide] | < 6.00 | C (IC50 ratio of less than 15 fold) |
| < 7.30 | > 8.30 | 0.075 to 0.125 | CCN(Cc1ccccc1C)C(=O)C(=O)Nc1cnc(N)c2cn[nH]c12 [Compound 151, N-(4-amino-1H-pyrazolo[4,3-c]pyridin-7-yl)-N′-ethyl-N′-(0-tolylmethyl)oxamide] | > 7.00 | A (IC50 ratio greater than or equal to 30 fold) |
| < 7.30 | > 8.30 | 0.075 to 0.125 | Nc1ncc(NC(=O)C(=O)N(Cc2ccccc2)Cc2ncccn2)c2[nH]ncc12 [Compound 14, N-(4-amino-1H-pyrazolo[4,3-c]pyridin-7-yl)-N′-benzyl-N′-(pyrimidin-2-ylmethyl)oxamide] | > 7.00 | A (IC50 ratio greater than or equal to 30 fold) |
